Test results published in patent publication US5534533A, “Carboxylate derivatives exhibiting phospholipase A2 inhibitory activity” (Shionogi & Co., Ltd., priority 1993, dated 1996).

Experiments:
[1] = molecular target: T1, Human secretory PLA2 (Homo sapiens, UniProt P14555); assay: Secretory PLA2 inhibitory activity (diheptanoyl thio PC substrate, absorbance at 405 nm); assay type: biochemical; details: diheptanoyl thio PC 1 mM, Triton X100 0.3 mM, pH 7.3, CaCl2 10 mM, 30 minutes, read-out: s-PLA2 Inhibition IC50
T1 sequence (P14555 21-144): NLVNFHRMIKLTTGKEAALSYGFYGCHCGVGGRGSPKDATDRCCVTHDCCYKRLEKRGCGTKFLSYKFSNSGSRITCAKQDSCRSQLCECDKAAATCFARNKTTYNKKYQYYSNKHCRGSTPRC
In short: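 Diheptanoyl thio-PC (1 mM) with Triton X100 (0.3 mM) and DTNB (125 μM) in Tris 25 mM pH 7.3, CaCl2 10 mM, KCl 100 mM, BSA 1.0 mg/ml. Absorbance change at 405 nm read at 30 min; percent inhibition corrected for no-enzyme blanks, IC50 from log-concentration plot.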

[2] = molecular target: T2, intracellular PLA2 (cytosolic PLA2, cPLA2) (Homo sapiens, UniProt P47712); assay: Intracellular PLA2 (cPLA2) inhibitory activity (14C-arachidonyl phosphatidylcholine substrate); assay type: biochemical; details: 2 μM radiolabelled phosphatidylcholine, 1 μM dioleoylglycerol, 1 mM CaCl2, pH 7.4; read-out: c-PLA2 Inhibition IC50
T2 sequence (P47712 1-749): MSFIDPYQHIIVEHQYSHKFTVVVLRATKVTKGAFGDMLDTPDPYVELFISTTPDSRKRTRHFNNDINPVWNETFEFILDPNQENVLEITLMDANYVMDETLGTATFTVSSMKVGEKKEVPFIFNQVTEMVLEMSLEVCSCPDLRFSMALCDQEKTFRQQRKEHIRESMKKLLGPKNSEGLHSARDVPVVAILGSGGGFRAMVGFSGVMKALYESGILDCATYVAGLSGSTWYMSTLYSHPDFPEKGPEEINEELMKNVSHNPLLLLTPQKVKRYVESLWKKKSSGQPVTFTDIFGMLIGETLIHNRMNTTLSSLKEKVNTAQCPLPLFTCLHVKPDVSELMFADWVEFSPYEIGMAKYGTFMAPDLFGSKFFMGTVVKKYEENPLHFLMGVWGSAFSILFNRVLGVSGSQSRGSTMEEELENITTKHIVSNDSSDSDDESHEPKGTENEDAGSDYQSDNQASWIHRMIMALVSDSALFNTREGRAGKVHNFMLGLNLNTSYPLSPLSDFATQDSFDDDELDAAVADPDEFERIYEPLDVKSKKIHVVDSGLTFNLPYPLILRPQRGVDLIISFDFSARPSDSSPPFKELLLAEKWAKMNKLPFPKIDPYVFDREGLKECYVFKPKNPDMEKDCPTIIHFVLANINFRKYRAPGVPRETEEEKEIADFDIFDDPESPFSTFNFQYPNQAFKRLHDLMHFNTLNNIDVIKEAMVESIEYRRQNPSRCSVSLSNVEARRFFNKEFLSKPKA
In short: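 Sonicated vesicles carrying 2 μM 1-palmitoyl-2-[14C]arachidonyl-phosphatidylcholine with 1 μM dioleoylglycerol served as substrate. Buffer: 50 mM Hepes pH 7.4, 150 mM NaCl, 1 mM CaCl2, 2 mM DTT, 0.1 mg/ml BSA. IC50 values were derived.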

SMILES	IC50 [1] [µM]	IC50 [2] [µM]
COc1c(C)c(OC(=O)c2c(C)c(C)c(OCCCNC(=O)c3ccccc3)c(C)c2OC)c(C)c(C)c1C(=O)O [Example 61, 4-[4-(3-Benzoylaminopropoxy)-2-methoxy-3,5,6-trimethylbenzoyloxy}-2-methoxy-3,5,6-trimethylbenzoic Acid]	33	> 50
COc1c(C)c(OC(=O)c2c(C)c(C)c(OCCCN(C(=O)c3ccccc3)C(=O)c3ccccc3)c(C)c2OC)c(C)c(C)c1C(=O)O [Example 62, 4-[4-(3-Dibenzoylaminopropoxy)-2-methoxy-3,5,6-trimethylbenzoyloxy}-2-methoxy-3,5,6-trimethylbenzoic Acid]	3.8	9.5
COc1c(C)c(OC(=O)c2c(C)c(C)c(OCCCN(Cc3ccccc3)Cc3ccccc3)c(C)c2OC)c(C)c(C)c1C(=O)O [Example 63, 4-{4-[3-(bis-Benzylamino)propoxy]-2-methoxy-3,5,6-trimethylbenzoyloxy}-2-methoxy-3,5,6-trimethylbenzoic Acid]	12	2.5
COc1c(C)c(OC(=O)c2c(C)c(C)c(OCCCN3C(=O)c4ccccc4C3=O)c(C)c2OC)c(C)c(C)c1C(=O)O [Example 64, 4-{4-[3-(1,3-Dioxo-1,3-dihydroisoindol-2-yl)-propoxy]-2-methoxy-3,5,6-trimethylbenzoyloxy}-2-methoxy-3,5,6-trimethylbenzoic Acid]	6.4	25
COc1c(C)c(OC(=O)c2c(C)c(C)c(OCCCN3C(=O)c4ccccc4S3(=O)=O)c(C)c2OC)c(C)c(C)c1C(=O)O [Example 65, 4-{4-[3-(1, 1 -Dihydroxy-3-oxo-3H-benzo[d]-isothiazole-2-yl)propoxy]-2-methoxy-3,5,6-trimethylbenzoyloxy}-2-methoxy-3,5,6-trimethylbenzoic Acid]	6.7	21
COc1c(C)c(OC(=O)c2c(C)c(C)c(OCCCN3CCC(=C(c4ccccc4)c4ccccc4)CC3)c(C)c2OC)c(C)c(C)c1C(=O)O [Example 66, 4-{4-[3-(4-Benzhydrylidenepiperidin-1-yl)-propoxy]-2-methoxy-3,5,6-trimethylbenzoyloxy}-2-methoxy-3,5,6-trimethylbenzoic Acid]	18	6.8
COc1c(C)c(OC(=O)c2c(C)c(C)c(OCCCN3CCN(C(c4ccccc4)c4ccccc4)CC3)c(C)c2OC)c(C)c(C)c1C(=O)O [Example 67, 4-{4-[3-(Di-Phenylmethylpiperazin-1-yl)propoxy]-2-methoxy-3,5,6-trimethylbenzoyloxy}-2-methoxy-3,5,6-trimethylbenzoic Acid]	17	5.1
COc1c(C)c(OC(=O)c2c(C)c(C)c(OCCCN3CCN(C(c4ccc(F)cc4)c4ccc(F)cc4)CC3)c(C)c2OC)c(C)c(C)c1C(=O)O [Example 68, 4-{4-[3-(Di-4-Fluorophenylmethylpiperazin-1-yl)-propoxy]-2-methoxy-3,5,6-trimethylbenzoyloxy}-2-methoxy-3,5,6-trimethylbenzoic Acid]	17	11
